Laboratory results taken from publication PMC5618672, “Rationally designed ligand‐independent peptide inhibitors of TREM‐1 ameliorate collagen‐induced arthritis” (Journal of Cellular and Molecular Medicine, 2017).

Legend:
[1] = test system: mice with CIA; test: Collagen‐induced arthritis (CIA) model, clinical arthritis score; assay type: in vivo, mouse (DBA/1); conditions: 0.1 mg/kg, positive control; data not shown
Method: (§1) Animal studies were performed by Bolder BioPATH (Boulder, CO, USA). CIA was induced in male 6‐ to 7‐week‐old DBA/1 mice by immunization with bovine type II collagen as previously described 19. Briefly, mice were injected intradermally with 100 μl of Freund's complete adjuvant containing 250 μg of bovine type II collagen (2 mg/ml final concentration) at the base of the tail on day 0 and again on day 21. On day 24, mice were randomized by body weight into treatment groups. At enrolment on day 24, the mean mouse weight was 20 g. Arthritis onset occurred on days 26‐38. Starting day 24, mice were injected intraperitoneally (i.p.) daily for 14 consecutive days with GF9 (2.5 and 25 mg/kg), GF9‐G (25 mg/kg), GF9‐dHDL (2.5 mg/kg), GF9‐sHDL (2.5 mg/kg), GA/E31‐dHDL (dose equivalent to 4 mg of GF9/kg), GA/E31‐sHDL (dose equivalent to 4 mg of GF9/kg) or with PBS. Mice were weighed on study days 24, 26, 28, 30, 32, 34, 36 and 38 (prior to necropsy). Daily clinical scores were given on a scale of 0–5 for each of the paws on days 24–38 using previously described criteria 19. On day 38, mice were killed for necropsy.

[2] = test system: joints of mice with CIA; test: Histology assessment of joints in CIA; assay type: in vivo, mouse (DBA/1); parameters: dose or concentration left out as unconfirmed
Method: as §1, with “([…]),” for “(i.p.) daily for 14 consecutive days with GF9 (2.5 and 25 mg/kg), GF9‐G (25 mg/kg), GF9‐dHDL (2.5 mg/kg),”, “([…]),” for “(dose equivalent to 4 mg of GF9/kg),”, “([…])” for “(dose equivalent to 4 mg of GF9/kg)”, “On day 38, mice were killed for necropsy.” left out
At the end of study, fore paws, hind paws and knees were harvested, fixed in 10% neutral buffered formalin for 1–2 days, and then decalcified in 5% formic acid for 4–5 days before standard processing for paraffin embedding. […] The joints were then assessed using 0–5 scale for inflammation, pannus formation, cartilage damage, bone resorption and periosteal new bone formation as previously reported 19. A summed histopathology score (sum of five parameters, 0–25 scale) was also determined.

C[C@@H]1C[C@H]2[C@@H]3CCC4=CC(=O)C=C[C@]4(C)[C@@]3(F)[C@@H](O)C[C@]2(C)[C@@]1(O)C(=O)CO [dexamethasone]
anti‐arthritic effect relative to GF9 at 25 mg/kg [1]: comparable
joint lesions (histopathology) ([2]; arthritic mice, day 38, not shown): No lesions were observed
reduction of summed histopathology scores compared to vehicle‐treated mice ([2]; data not shown): 99%
